Literature values, collected in US20250000936A1, “TREATMENT OF GEOGRAPHIC ATROPHY” (Apellis Pharmaceuticals, Inc., priority 2021, published 2025).

system: complement activation; conditions: complement inhibiting activity relative to C-terminally amidated compstatin; cited from earlier work

Row | Substance | Activity over compstatin [xmore]
1 | Ac-ICV(1-Nal)QDWGAHRCT-COOH (N-acetyl, 1-Nal) [Ac V4(1-Nal)/H9A-OH] | 30
2 | Ac-ICV(2-Igl)QDWGAHRCT-CONH2 (N-acetyl, C-amide, 2-Igl) [Ac-V42Igl/H9A] | 39
3 | Ac-ICV(2-Igl)QDWGAHRCT-COOH (N-acetyl, 2-Igl) [Ac-V42Igl/H9A-OH] | 37
4 | Ac-ICV(2-Nal)QDWGAHRCT-CONH2 (N-acetyl, C-amide, 2-Nal) [Ac-V4(2-Nal)/H9A] | 99
5 | Ac-ICV(2-Nal)QDWGAHRCT-COOH (N-acetyl, 2-Nal) [Ac V4(2-Nal)/H9A-OH] | 38
6 | Ac-ICV(Bpa)QDWGAHRCT-CONH2 (N-acetyl, C-amide, Bpa) [Ac-V4(Bpa)/H9A] | 86
7 | Ac-ICV(Bpa)QDWGAHRCT-COOH (N-acetyl, Bpa) [Ac-V4(Bpa)/H9A-OH] | 49
8 | Ac-ICVDhtQDWGAHRCT-COOH [Ac-V4Dht/H9A-OH] | 5
9 | Ac-ICVVQDWGHHRCT-CONH2 [Ac-compstatin] | 3
10 | Ac-ICVWQD(5fW)GAHRCT-CONH2 [Ac-V4W/W7(5fW)/H9A] | 121
11 | Ac-ICVWQDWGAHRCT-CONH2 (Ac-ICVWQDWGAHRCT-NH2; cysteine pairing not given here) [Ac-V4W/H9A] | 45
12 | Ac-ICVWQDWGAHRCdT-COOH [Ac-V4W/H9A/T13dT-OH] | 55
13 | Ac-ICVYQDWGAHRCT-CONH2 [Ac-V4Y/H9A] | 14
14 | H-GICV(6fW)QD(6fW)GAHRCTN-COOH (6-fluoro-Trp residues) [+G/V4(6fW)/W7(6fW)H9A+N-OH] | 126
